# Legend:
# Format in all cases: biochemical
# Pdr11p [1] = biological target: T1, Pdr11p (Saccharomyces cerevisiae, UniProt P40550); assay: radiolabelled ATPase assay, dose-response with purified protein
# T1 construct: gene PDR11; N-terminal FLAG-tagged Pdr11p, purified in DDM
# T1 sequence (P40550 1-1411): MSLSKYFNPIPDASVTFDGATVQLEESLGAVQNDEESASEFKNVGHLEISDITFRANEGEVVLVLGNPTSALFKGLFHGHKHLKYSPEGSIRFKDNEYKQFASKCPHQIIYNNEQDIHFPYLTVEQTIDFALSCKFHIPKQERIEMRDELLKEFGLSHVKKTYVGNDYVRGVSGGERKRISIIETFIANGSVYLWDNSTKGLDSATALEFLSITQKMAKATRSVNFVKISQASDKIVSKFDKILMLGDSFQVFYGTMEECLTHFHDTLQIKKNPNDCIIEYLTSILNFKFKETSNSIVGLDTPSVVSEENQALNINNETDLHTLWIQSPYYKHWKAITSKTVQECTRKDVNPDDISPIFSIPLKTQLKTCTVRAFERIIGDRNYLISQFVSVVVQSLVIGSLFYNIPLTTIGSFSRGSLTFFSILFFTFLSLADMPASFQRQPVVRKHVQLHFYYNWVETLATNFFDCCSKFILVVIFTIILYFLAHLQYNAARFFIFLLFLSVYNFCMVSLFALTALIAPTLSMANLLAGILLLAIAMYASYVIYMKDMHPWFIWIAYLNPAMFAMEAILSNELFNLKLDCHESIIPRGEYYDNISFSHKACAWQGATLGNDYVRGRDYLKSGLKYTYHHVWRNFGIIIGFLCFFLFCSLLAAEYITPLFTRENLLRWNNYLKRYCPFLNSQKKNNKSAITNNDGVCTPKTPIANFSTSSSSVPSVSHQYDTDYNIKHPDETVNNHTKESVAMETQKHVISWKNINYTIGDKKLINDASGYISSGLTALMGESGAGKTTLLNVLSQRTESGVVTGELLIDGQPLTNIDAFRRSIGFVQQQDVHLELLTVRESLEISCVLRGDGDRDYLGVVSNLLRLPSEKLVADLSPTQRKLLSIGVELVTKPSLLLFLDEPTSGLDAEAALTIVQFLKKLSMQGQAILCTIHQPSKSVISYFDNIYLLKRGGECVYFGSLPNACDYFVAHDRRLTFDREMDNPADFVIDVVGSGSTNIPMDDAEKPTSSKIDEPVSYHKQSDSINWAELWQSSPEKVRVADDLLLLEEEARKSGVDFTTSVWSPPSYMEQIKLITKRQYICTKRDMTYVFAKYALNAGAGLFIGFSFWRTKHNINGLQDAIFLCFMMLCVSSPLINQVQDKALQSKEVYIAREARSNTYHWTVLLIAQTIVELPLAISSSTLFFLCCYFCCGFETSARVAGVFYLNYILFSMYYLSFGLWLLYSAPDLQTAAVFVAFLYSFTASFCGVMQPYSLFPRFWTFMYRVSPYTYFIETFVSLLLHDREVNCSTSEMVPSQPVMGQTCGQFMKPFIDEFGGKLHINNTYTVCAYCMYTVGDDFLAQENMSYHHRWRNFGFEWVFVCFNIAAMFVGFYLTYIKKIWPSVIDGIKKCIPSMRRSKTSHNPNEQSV
# Pdr11p [2] = biological target: T1, Pdr11p; assay: radiolabelled ATPase assay (release of inorganic phosphate) with purified protein
# Aus1p = biological target: T2, Aus1p (Saccharomyces cerevisiae, UniProt Q08409); assay: radiolabelled ATPase assay with liposome-reconstituted protein
# T2 construct: gene AUS1; FLAG-tagged Aus1p, purified and reconstituted in liposomes
# T2 sequence (Q08409 1-1394): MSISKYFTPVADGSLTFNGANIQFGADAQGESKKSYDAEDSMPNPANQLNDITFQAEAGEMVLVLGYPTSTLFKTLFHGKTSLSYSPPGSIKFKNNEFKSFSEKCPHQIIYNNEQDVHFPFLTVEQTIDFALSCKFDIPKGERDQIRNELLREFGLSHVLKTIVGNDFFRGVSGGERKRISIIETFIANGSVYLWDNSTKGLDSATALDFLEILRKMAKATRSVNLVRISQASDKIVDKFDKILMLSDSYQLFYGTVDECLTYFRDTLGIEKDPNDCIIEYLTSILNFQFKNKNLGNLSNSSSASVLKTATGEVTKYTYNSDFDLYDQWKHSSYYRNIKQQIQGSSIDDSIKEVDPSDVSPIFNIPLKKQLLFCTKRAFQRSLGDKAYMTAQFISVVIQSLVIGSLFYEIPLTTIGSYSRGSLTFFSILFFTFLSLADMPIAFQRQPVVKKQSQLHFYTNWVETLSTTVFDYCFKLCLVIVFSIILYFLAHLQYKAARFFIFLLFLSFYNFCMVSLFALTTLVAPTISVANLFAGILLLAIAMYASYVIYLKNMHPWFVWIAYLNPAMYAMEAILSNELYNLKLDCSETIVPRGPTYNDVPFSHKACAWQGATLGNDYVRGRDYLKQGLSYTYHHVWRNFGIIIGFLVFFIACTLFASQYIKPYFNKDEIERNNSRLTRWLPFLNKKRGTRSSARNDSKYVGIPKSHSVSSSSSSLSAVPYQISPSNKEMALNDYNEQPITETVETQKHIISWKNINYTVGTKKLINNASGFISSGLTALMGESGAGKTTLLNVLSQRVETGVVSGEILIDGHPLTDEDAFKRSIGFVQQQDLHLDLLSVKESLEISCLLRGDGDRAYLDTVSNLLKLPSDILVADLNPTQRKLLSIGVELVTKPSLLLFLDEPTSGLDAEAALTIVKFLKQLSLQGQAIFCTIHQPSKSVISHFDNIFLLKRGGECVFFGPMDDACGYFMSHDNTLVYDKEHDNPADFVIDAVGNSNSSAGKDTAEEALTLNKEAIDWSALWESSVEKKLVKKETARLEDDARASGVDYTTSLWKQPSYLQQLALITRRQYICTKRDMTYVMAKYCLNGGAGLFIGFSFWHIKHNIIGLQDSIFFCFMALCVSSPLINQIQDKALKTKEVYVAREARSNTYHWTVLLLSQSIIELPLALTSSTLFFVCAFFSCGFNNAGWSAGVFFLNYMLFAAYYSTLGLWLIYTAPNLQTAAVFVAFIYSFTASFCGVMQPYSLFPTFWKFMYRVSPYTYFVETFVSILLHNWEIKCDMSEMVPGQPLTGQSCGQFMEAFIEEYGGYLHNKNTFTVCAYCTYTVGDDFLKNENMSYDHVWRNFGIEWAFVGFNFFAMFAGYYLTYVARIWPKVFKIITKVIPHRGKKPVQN
# Pdr11p [3] = biological target: T1, Pdr11p; assay: radiolabelled ATPase assay with purified protein, […] AlF3
smiles,measurement,setting,value
[O]=[V]([OH])([OH])[OH] [orthovanadate],IC50,Pdr11p [1],4 ± 2 mM
Nc1ncnc2c1ncn2[C@@H]1O[C@H](COP(=O)(O)OP(=O)(O)OP(=O)(O)O)[C@@H](O)[C@H]1O [ATP],radiolabelled ATPase assay (release of inorganic phosphate) with purified protei,Pdr11p [2],~ 60 ± 24 nmol of ATP/min/mg of protein
same,radiolabelled ATPase assay with liposome-reconstituted protein,Aus1p,Purified Pdr11p and Aus1p were reconstituted into different liposomes (containing Rho-PE as fluorescent lipid marker) and assayed for ATPase activity
[F][Al]([F])[F] [aluminium fluoride],"radiolabelled ATPase assay with purified protein, 1 mM AlF3",Pdr11p [3],strongly inhibited by the classical inhibitors of ABC proteins beryllium fluoride and aluminium fluoride (Fig 4B)

# Reference: PMC5602531, “Purification and characterisation of the yeast plasma membrane ATP binding cassette transporter Pdr11p” (PLoS ONE, 2017)
